From patent US8785416B2, “Sulphated disaccharides for the treatment of neurodegenerative and/or neurovascular diseases” (Bioiberica, S.A., priority 2009, dated 2014)

Experiments:
Assay type in all cases: cell-based
[1] = test system: SH-SY5Y human neuroblastoma cell line; experiment: Cell toxicity study, LDH release, SH-SY5Y cells incubated 48 hours; conditions: 100 μM, 48 hours incubation
Description: The cell toxicity studies were performed on the SH-SY5Y human neuroblastoma cell line, incubating said cells for 48 hours with the compound under study. The cell viability was assessed by quantifying the release of lactate dehydrogenase (LDH), which is a cytoplasmic enzyme which is released into the extracellular medium when the integrity of the cytoplasmic membrane is lost.

rat hippocampal slices [2] = experiment: Oxygen and glucose deprivation (15 minutes OGD, 2 hours reoxygenation) in hippocampal slices, MTT cell viability
Description: (§1) Male Spague Dawley strain rats (250-325 g) were used. After anaesthesia by means of an intraperitoneal injection of 60 mg/Kg sodium pentobarbital (Euta-Lender®), they were decapitated with a guillotine and the brain was extracted after a craniotomy. The brain was immediately submersed in a dissection solution, a cold (4° C.) modified Krebs-Henseleit solution at pH 7.4, the composition of which is: 120 mM NaCl, 2 mM KCl, 0.5 mM CaCl2, 26 mM NaHCO3, 10 mM MgSO4, 1.18 mM KH2PO4, 11 mM glucose and 200 mM sucrose, bubbled with 95% O2-5% CO2. The hippocampi were isolated, embedded in 2% low melting point agarose (Sigma-Aldrich), and cut into 350 μm transverse slices in a vibratome (Leica VT1000S).
After the cutting in the vibratome, the slices were transferred to a vial with sucrose-free dissection Krebs solution, bubbled with 95% O2-5% CO2 for 60 minutes (equilibrium period).
After the equilibrating period, the medium was removed and an oxygenated solution (normal Krebs solution (120 mM NaCl, 2 mM KCl, 2 mM CaCl2, 26 mM NaHCO3, 1.19 mM MgSO4, 1.18 mM KH2PO4 and 11 mM glucose), bubbled with 5% CO2 and 95% O2 for 30 minutes (preincubation period), was introduced. The baseline slices were maintained in this oxygenated solution throughout the entire experiment. To induce OGD, the oxygenated solution was replaced with another one which lacked glucose and was bubbled with a mixture of gases of 5% CO2 and 95% N2 (anoxic solution). The slices were in a bath at 37° C. After inducing OGD, the anoxic medium was replaced with another one which contained the oxygenated solution (reoxygenation period).
To evaluate the effect of the compounds, they were incubated for the 30 minutes of the preincubation and throughout the OGD and during the reoxygenation. Two OGD-reoxygenation protocols were used: (i) 1 hour of OGD and 2 hours of reoxygenation and (ii) 15 minutes of OGD followed by 2 hours of reoxygenation.
When the OGD-reoxygenation protocol (ii): 15 minutes of OGD followed by 2 hours of reoxygenation was used, the slices were incubated with increasing concentrations of compound Ic (0.3 and 1 μM) or with increasing concentrations of compound Ib (1 and 3 μM). In the same study these two compounds of the invention were compared with N-acetylcysteine (NAC) at 10 mM. The baseline (slices in the absence of compound Ic or Ib and of OGD) and the control (slices in the absence of compound Ic or Ib and with OGD) were also included.
For the protocol of 15 minutes of OGD followed by 2 hours of reoxygenation, the cell viability was evaluated by means of the tetrazolium salt MTT, which is internalized in those cells which are viable and are therefore capable of reducing the tetrazolium to formazan which is an insoluble and coloured product which is deposited in the […]. To that end, after the experiment had ended, the hippocampal slices were incubated with MTT at a final concentration of 0.5 mg/mL in a Krebs-HEPES solution (in mM: NaCl, 144; KCl, 5.9; MgCl2, 1.2; CaCl2, 2; HEPES, 10; glucose, 11; at pH 7.3) at 37° C. After 3 hours, the medium was removed and the formazan precipitated in the solution was dissolved in dimethylsulfoxide. Then, the absorbance was measured in a plate reader (Labsystems iEMS Reader MF), at 500 nm. The data were represented taking the result of the baseline slices, i.e., those not subjected to OGD, as 100% viability.

rat hippocampal slices [3] = experiment: Oxygen and glucose deprivation (1 hour OGD, 2 hours reoxygenation) in hippocampal slices, LDH release
Description: as §1
After the cutting in the vibratome, the slices were transferred to a vial with sucrose-free dissection Krebs solution, bubbled with 95% O2-5% CO2 for 60 minutes (equilibrium period). […]
For the protocol of 1 hour of OGD followed by 2 hours of reoxygenation, the viability was determined by measuring the release of LDH into the extracellular medium according to the method described in Example 3. The quantification of LDH was performed in samples taken (i) after the preincubation period, (ii) after the hour of OGD and (iii) after each hour of reoxygenation (1 hour and 2 hours).

Substance: methyl 2-acetamido-2-deoxy-3-O-(β-D-glucopyranosyluronic acid)-4,6-di-O-sulpho-α-D-glucopyranoside, trisodium salt [compound Ic]
- cell toxicity (release of LDH) [1]: did not show toxicity
- maximum statistically significant protection (cell viability, MTT) (rat hippocampal slices [2]; 1 μM, 15 minutes OGD, 2 hours reoxygenation, baseline 100%, control 67%): 93%
- efficacy in comparison with N-acetylcysteine (rat hippocampal slices [2]; Ic 0.3 and 1 μM, Ib 1 and 3 μM vs N-acetylcysteine 10 mM): higher efficacy
- protective effect against cell death (LDH release) (rat hippocampal slices [3]; 1 μM, at 2 hours of reoxygenation after 1 hour OGD): 40%
- effect on cell death after one hour of OGD followed by 2 hours of reoxygenation (rat hippocampal slices [3]; 1 and 10 μM): reduced cell death in a concentration-dependent
